Measured values taken from patent US10405547B2, “Substituted cyclic amides as herbicides” (FMC Corporation, priority 2015, dated 2019).

How the values were obtained:
Type in all cases: in vivo
[1] = test system: barnyardgrass (Echinochloa crus-galli); experiment: Test A preemergence, barnyardgrass; details: 0 to 100 scale (0 no effect, 100 complete control)
Method in brief: (§1)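 Visual injury on a 0 to 100 scale, about 10 days post-spray in the greenhouse. Postemergence plants measured 2–10 cm at one to two leaves; preemergence pots received a directed soil spray. Soil was a loam–sand blend.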

[2] = test system: kochia (Kochia scoparia); experiment: Test A preemergence, kochia; details: 0 to 100 scale (0 no effect, 100 complete control)
Method in brief: as §1

[3] = test system: ragweed (common ragweed, Ambrosia elatior); experiment: Test A preemergence, ragweed; details: 0 to 100 scale (0 no effect, 100 complete control)
Method in brief: as §1

[4] = test system: ryegrass, Italian (Lolium multiflorum); experiment: Test A preemergence, Italian ryegrass; details: 0 to 100 scale (0 no effect, 100 complete control)
Method in brief: as §1

[5] = test system: foxtail, giant (Setaria faberii); experiment: Test A preemergence, giant foxtail; details: 0 to 100 scale (0 no effect, 100 complete control)
Method in brief: as §1

[6] = test system: pigweed (Amaranthus retroflexus); experiment: Test A preemergence, pigweed; details: 0 to 100 scale (0 no effect, 100 complete control)
Method in brief: as §1

[7] = test system: barnyardgrass (Echinochloa crus-galli); experiment: Test A postemergence, barnyardgrass; details: 0 to 100 scale (0 no effect, 100 complete control)
Method in brief: as §1

[8] = test system: kochia (Kochia scoparia); experiment: Test A postemergence, kochia; details: 0 to 100 scale (0 no effect, 100 complete control)
Method in brief: as §1

[9] = test system: ragweed (common ragweed, Ambrosia elatior); experiment: Test A postemergence, ragweed; details: 0 to 100 scale (0 no effect, 100 complete control)
Method in brief: as §1

[10] = test system: ryegrass, Italian (Lolium multiflorum); experiment: Test A postemergence, Italian ryegrass; details: 0 to 100 scale (0 no effect, 100 complete control)
Method in brief: as §1

[11] = test system: foxtail, giant (Setaria faberii); experiment: Test A postemergence, giant foxtail; details: 0 to 100 scale (0 no effect, 100 complete control)
Method in brief: as §1

[12] = test system: pigweed (Amaranthus retroflexus); experiment: Test A postemergence, pigweed; details: 0 to 100 scale (0 no effect, 100 complete control)
Method in brief: as §1

[13] = test system: blackgrass (Alopecurus myosuroides); experiment: Test A postemergence, blackgrass; details: 0 to 100 scale (0 no effect, 100 complete control)
Method in brief: as §1

[14] = test system: galium (catchweed bedstraw, Galium aparine); experiment: Test A postemergence, galium; details: 0 to 100 scale (0 no effect, 100 complete control)
Method in brief: as §1

[15] = test system: wheat (Triticum aestivum); experiment: Test A postemergence, wheat; details: 0 to 100 scale (0 no effect, 100 complete control)
Method in brief: as §1

[16] = test system: corn (Zea mays); experiment: Test A postemergence, corn; details: 0 to 100 scale (0 no effect, 100 complete control)
Method in brief: as §1

[17] = test system: rice (Oryza sativa); experiment: Test B flooded paddy test, rice; details: 250 g ai/ha, applied to paddy water, visual rating after 13 to 15 days, scale 0 (no effect) to 100 (complete control)
Method in brief: (§2)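 Pots were flooded to 3 cm above the soil surface at treatment, compound applied directly to the paddy water, and that depth held throughout. Plants were kept in a greenhouse for 13 to 15 days, then visually rated against untreated controls.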

[18] = test system: sedge, umbrella (small-flower umbrella sedge, Cyperus difformis); experiment: Test B flooded paddy test, umbrella sedge; details: 250 g ai/ha, applied to paddy water, visual rating after 13 to 15 days, scale 0 (no effect) to 100 (complete control)
Method in brief: as §2

[19] = test system: ducksalad (Heteranthera limosa); experiment: Test B flooded paddy test, ducksalad; details: 250 g ai/ha, applied to paddy water, visual rating after 13 to 15 days, scale 0 (no effect) to 100 (complete control)
Method in brief: as §2

[20] = test system: barnyardgrass (Echinochloa crus-galli); experiment: Test B flooded paddy test, barnyardgrass; details: 250 g ai/ha, applied to paddy water, visual rating after 13 to 15 days, scale 0 (no effect) to 100 (complete control)
Method in brief: as §2

[21] = 125 g ai/ha, visual injury, approximately 10 days
[22] = 500 g ai/ha, visual injury, approximately 10 days

Row | SMILES | Plant response rating, Barnyardgrass ([1]; 125 g ai/ha) | Plant response rating, Kochia ([2]; 125 g ai/ha) | Plant response rating, Ragweed ([3]; 125 g ai/ha) | Plant response rating, Ryegrass, Italian ([4]; 125 g ai/ha) | Plant response rating, Foxtail, Giant ([5]; 125 g ai/ha) | Plant response rating, Pigweed ([6]; 125 g ai/ha) | Plant response rating, Barnyardgrass [7, 21] | Plant response rating, Kochia [8, 21] | Plant response rating, Ragweed [9, 21] | Plant response rating, Ryegrass, Italian [10, 21] | Plant response rating, Foxtail, Giant [11, 21] | Plant response rating, Pigweed [12, 21] | Plant response rating, Blackgrass [13, 21] | Plant response rating, Galium [14, 21] | Plant response rating, Wheat [15, 21] | Plant response rating, Corn [16, 21] | Plant response rating, Rice (Flood) [17] | Plant response rating, Sedge, Umbrella (Flood) [18] | Plant response rating, Ducksalad (Flood) [19] | Plant response rating, Barnyardgrass (Flood) [20] | also measured
1 | CN1CC(c2cccc(Sc3ccccc3)c2)C(C(=O)Nc2cccc(F)c2F)C1=O (single isomer, unassigned) [Compound 51] | 20 | 20 | 0 | 0 | 90 | 0 | 0 | 0 | 0 | 20 | 10 | 0 | 0 | 40 | 0 | 0 | 0 | 0 | 40 | 0 | Plant response rating, Kochia ([2]; 500 g ai/ha): 50; Plant response rating, Ragweed ([3]; 500 g ai/ha): 0; Plant response rating, Ryegrass, Italian ([4]; 500 g ai/ha): 20; Plant response rating, Foxtail, Giant ([5]; 500 g ai/ha): 90; Plant response rating, Pigweed ([6]; 500 g ai/ha): 0; Plant response rating, Barnyardgrass [7, 22]: 30; Plant response rating, Kochia [8, 22]: 30; Plant response rating, Ragweed [9, 22]: 20; Plant response rating, Ryegrass, Italian [10, 22]: 30; Plant response rating, Foxtail, Giant [11, 22]: 40; Plant response rating, Pigweed [12, 22]: 0; Plant response rating, Blackgrass [13, 22]: 0; Plant response rating, Galium [14, 22]: 50; Plant response rating, Wheat [15, 22]: 20; Plant response rating, Corn [16, 22]: 30
2 | CN1CC(c2cccc(Oc3ccc(F)cn3)c2)C(C(=O)Nc2cccc(C#N)c2F)C1=O (single isomer, unassigned) [Compound 88] | 30 | 30 | 0 | 20 | 90 | 20 | 80 | 30 | 0 | 0 | 70 | 20 | 0 | 40 | 60 | 20 | 0 | 0 | 50 | 0 | Plant response rating, Barnyardgrass ([1]; 31 g ai/ha): 0; Plant response rating, Kochia ([2]; 31 g ai/ha): 0; Plant response rating, Ragweed ([3]; 31 g ai/ha): 0; Plant response rating, Ryegrass, Italian ([4]; 31 g ai/ha): 0; Plant response rating, Foxtail, Giant ([5]; 31 g ai/ha): 30; Plant response rating, Pigweed ([6]; 31 g ai/ha): 0; Plant response rating, Barnyardgrass ([7]; 31 g ai/ha): 30; Plant response rating, Kochia ([8]; 31 g ai/ha): 0; Plant response rating, Ragweed ([9]; 31 g ai/ha): 0; Plant response rating, Ryegrass, Italian ([10]; 31 g ai/ha): 0; Plant response rating, Foxtail, Giant ([11]; 31 g ai/ha): 30; Plant response rating, Pigweed ([12]; 31 g ai/ha): 0; Plant response rating, Blackgrass ([13]; 31 g ai/ha): 0; Plant response rating, Galium ([14]; 31 g ai/ha): 30; Plant response rating, Wheat ([15]; 31 g ai/ha): 0; Plant response rating, Corn ([16]; 31 g ai/ha): 0
3 | CN1CC(c2cccc(Oc3ccc(F)cn3)c2)C(C(=O)Nc2cccc(F)c2C#N)C1=O (single isomer, unassigned) [Compound 89] | 70 | 0 | 0 | 40 | 90 | 60 | 70 | 0 | 0 | 20 | 70 | 50 | 20 | 40 | 0 | 0 | 0 | 0 | 70 | 0 | Plant response rating, Barnyardgrass ([1]; 31 g ai/ha): 30; Plant response rating, Kochia ([2]; 31 g ai/ha): 0; Plant response rating, Ragweed ([3]; 31 g ai/ha): 0; Plant response rating, Ryegrass, Italian ([4]; 31 g ai/ha): 0; Plant response rating, Foxtail, Giant ([5]; 31 g ai/ha): 40; Plant response rating, Pigweed ([6]; 31 g ai/ha): 0; Plant response rating, Barnyardgrass ([7]; 31 g ai/ha): 30; Plant response rating, Kochia ([8]; 31 g ai/ha): 0; Plant response rating, Ragweed ([9]; 31 g ai/ha): 0; Plant response rating, Ryegrass, Italian ([10]; 31 g ai/ha): 0; Plant response rating, Foxtail, Giant ([11]; 31 g ai/ha): 30; Plant response rating, Pigweed ([12]; 31 g ai/ha): 0; Plant response rating, Blackgrass ([13]; 31 g ai/ha): 0; Plant response rating, Galium ([14]; 31 g ai/ha): 30; Plant response rating, Wheat ([15]; 31 g ai/ha): 0; Plant response rating, Corn ([16]; 31 g ai/ha): 0
4 | O=C1NCC(c2cccc(CN3CCOCC3)c2)C1C(=O)Nc1cccc(F)c1F (single isomer, unassigned) [Compound 90] | 0 | 0 | 0 | 0 | 0 | 0 | 0 | 0 | 0 | 0 | 0 | 0 | 0 | 0 | 0 | 0 | 0 | 0 | 0 | 0 | Plant response rating, Barnyardgrass ([1]; 31 g ai/ha): 0; Plant response rating, Kochia ([2]; 31 g ai/ha): 0; Plant response rating, Ragweed ([3]; 31 g ai/ha): 0; Plant response rating, Ryegrass, Italian ([4]; 31 g ai/ha): 0; Plant response rating, Foxtail, Giant ([5]; 31 g ai/ha): 0; Plant response rating, Pigweed ([6]; 31 g ai/ha): 0; Plant response rating, Barnyardgrass ([7]; 31 g ai/ha): 0; Plant response rating, Kochia ([8]; 31 g ai/ha): 0; Plant response rating, Ragweed ([9]; 31 g ai/ha): 0; Plant response rating, Ryegrass, Italian ([10]; 31 g ai/ha): 0; Plant response rating, Foxtail, Giant ([11]; 31 g ai/ha): 0; Plant response rating, Pigweed ([12]; 31 g ai/ha): 0; Plant response rating, Blackgrass ([13]; 31 g ai/ha): 0; Plant response rating, Galium ([14]; 31 g ai/ha): 0; Plant response rating, Wheat ([15]; 31 g ai/ha): 0; Plant response rating, Corn ([16]; 31 g ai/ha): 0
